How the values were obtained:
Assay in all cases: drug sensitivity score (DSS), CellTiter-Glo (DSS (AUC-based score)); higher = stronger drug effect (viability inhibition or cytotoxicity); extreme values may be limits of the assay
Conditions in all cases: incubation time: 72 h
BT-474 = test system: BT-474
Summary of the method: (§1)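 Breast cancer cells were seeded into 384-well plates containing compound at 5 concentrations in 10-fold steps over a compound-specific 10,000-fold range and incubated 72 h. After CellTox Green and CellTiter-Glo readings, each plate was normalised to 0.1 % DMSO and a positive kill control. The drug sensitivity score rests on the area under the fitted dose-response curve.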

HCC1143 = test system: HCC1143
Summary of the method: as §1

CAL-51 = test system: CAL-51
Summary of the method: as §1

SK-BR-3 = test system: SK-BR-3
Summary of the method: as §1

CAL-120 = test system: CAL-120
Summary of the method: as §1

MCF-10A = test system: MCF-10A
Summary of the method: as §1

Hs578T = test system: Hs578T
Summary of the method: as §1

CAL-85-1 = test system: CAL-85-1
Summary of the method: as §1

MDA-MB-436 = test system: MDA-MB-436
Summary of the method: as §1

BT-549 = test system: BT-549
Summary of the method: as §1

MDA-MB-468 = test system: MDA-MB-468
Summary of the method: as §1

MDA-MB-231 = test system: MDA-MB-231
Summary of the method: as §1

HDQ-P1 = test system: HDQ-P1
Summary of the method: as §1

MDA-MB-453 = test system: MDA-MB-453
Summary of the method: as §1

CAL-148 = test system: CAL-148
Summary of the method: as §1

DU-4475 = test system: DU-4475
Summary of the method: as §1

| Structure (SMILES) | drug sensitivity score (BT-474) | drug sensitivity score (HCC1143) | drug sensitivity score (CAL-51) | drug sensitivity score (SK-BR-3) | drug sensitivity score (CAL-120) | drug sensitivity score (MCF-10A) | drug sensitivity score (Hs578T) | drug sensitivity score (CAL-85-1) | drug sensitivity score (MDA-MB-436) | drug sensitivity score (BT-549) | drug sensitivity score (MDA-MB-468) | drug sensitivity score (MDA-MB-231) | drug sensitivity score (HDQ-P1) | drug sensitivity score (MDA-MB-453) | drug sensitivity score (CAL-148) | drug sensitivity score (DU-4475) |
| --- | --- | --- | --- | --- | --- | --- | --- | --- | --- | --- | --- | --- | --- | --- | --- | --- |
| Cn1cc(C2=Nc3cc(NC(=O)C(N)C4CCCCC4)cc4c3C2=CNNC4=O)cn1 (stereo unspecified) | 6.46 | 7.81 | 5.76 | 19.1 | 6.28 | 2.96 | 12.1 | 13.3 | 9.88 | 14.6 | 14.4 | 7.52 | 3.25 | 14.3 | 0 | 2.68 |
| COc1cc2c(cc1O)CC[C@@H]1[C@@H]2CC[C@]2(C)[C@@H](O)CC[C@@H]12 [2-methoxyestradiol] | 5.9 | 3.67 | 5.34 | 5.71 | 4.15 | 0 | 7.49 | 5.61 | 6.35 | 10.1 | 4.21 | 5.78 | 0.369 | 5.52 | 2.17 | 2.41 |
| Cc1sc2c(c1C)C(c1ccc(Cl)cc1)=N[C@@H](CC(=O)OC(C)(C)C)c1nnc(C)n1-2 [(+)JQ1] | 7.3 | 5.11 | 1.66 | 5.66 | 4.19 | 9.62 | 12.8 | 12.7 | 2.63 | 13.3 | 9.62 | 3.61 | 6.56 | 10.7 | 6.21 | 9.61 |
| CC1(C)CCC(CN2CCN(c3ccc(C(=O)NS(=O)(=O)c4ccc(NCC5CCOCC5)c([N+](=O)[O-])c4)c(Oc4cnc5[nH]ccc5c4)c3)CC2)=C(c2ccc(Cl)cc2)C1 [ABT-199] | 0 | 0 | 1.71 | 0 | 0 | 0 | 0 | 0 | 0 | 0 | 0.128 | 0 | 0 | 0 | 0 | 0 |
| Oc1ncnc2[nH]ncc12 [Allopurinol] | 0 | 0 | 0 | 0 | 0 | 0 | 0 | 0 | 0 | 0 | 0 | 0 | 0 | 0 | 0 | 0 |
| O=C1CN2Cc3c(ccc(Cl)c3Cl)N=C2N1 [Anagrelide] | 0.269 | 0 | 0.565 | 0 | 0 | 0 | 1.32 | 0 | 0 | 0 | 0 | 0 | 0 | 0 | 0 | 0 |
| Nc1ncn([C@@H]2O[C@H](CO)[C@@H](O)[C@H]2O)c(=O)n1 [Azacitidine] | 1.74 | 0 | 0 | 0 | 0 | 0 | 0 | 0 | 4.78 | 5.75 | 12.1 | 0 | 2.36 | 0 | 0 | 0 |
| O=NN(CCCl)C(=O)NCCCl [Carmustine] | 0 | 0 | 0 | 0 | 0 | 0 | 0 | 0 | 0 | 0 | 0 | 0 | 0 | 0 | 0 | 0 |
| CC1=C2C[C@H]3[C@@H](CC=C4C[C@@H](O)CC[C@@]43C)[C@@H]2CC[C@]12O[C@@H]1C[C@H](C)CN[C@H]1[C@H]2C [Cyclopamine] | 0 | 0 | 0 | 0 | 0 | 0 | 0 | 0 | 0 | 0 | 0 | 0 | 0 | 0 | 0 | 0 |
| CC(=O)N(O)CCCCCNC(=O)CCC(=O)N(O)CCCCCNC(=O)CCC(=O)N(O)CCCCCN [Deferoxamine] | 0 | 3.11 | 3.33 | 4.14 | 0 | 0 | 2.31 | 0 | 4.73 | 5.68 | 7.85 | 0 | 2.75 | 0 | 9.03 | 5.21 |
| CC(=O)O[C@@]12CO[C@@H]1C[C@H](O)[C@@]1(C)C(=O)[C@H](O)C3=C(C)[C@@H](OC(=O)[C@H](O)[C@@H](NC(=O)OC(C)(C)C)c4ccccc4)C[C@@](O)([C@@H](OC(=O)c4ccccc4)[C@H]21)C3(C)C [Docetaxel] | 15.6 | 23.7 | 19.5 | 31.4 | 13.3 | 20.4 | 27.2 | 25.6 | 22 | 30.5 | 27.3 | 19.4 | 10.6 | 14.8 | 20.5 | 15.1 |
| C[C@]12CC[C@@H]3c4ccc(OC(=O)N(CCCl)CCCl)cc4CC[C@H]3[C@@H]1CC[C@@H]2O [Estramustine] | 0 | 0 | 2.19 | 0 | 0 | 0 | 0 | 0 | 0 | 0 | 0.683 | 0 | 0 | 0 | 0 | 0 |
| C[C@]1(O)C[C@@H](c2nc(-c3ccc4ccc(-c5ccccc5)nc4c3)c3c(N)nccn32)C1 [Linsitinib] | 3.89 | 1.82 | 0 | 6.62 | 1.76 | 12.5 | 0 | 2.88 | 0.173 | 0 | 4.62 | 0 | 5.33 | 2.26 | 0 | 0 |
| CC1(C)CNc2cc(NC(=O)c3cccnc3NCc3ccncc3)ccc21 [Motesanib] | 0 | 0 | 0 | 0 | 0 | 0 | 0 | 0 | 0 | 0 | 0.164 | 0 | 0 | 0 | 0 | 0 |
| Cc1ccc([N+](=O)[O-])cc1S(=O)(=O)N(C)/N=C/c1cnc2ccc(Br)cn12 [PIK-75] | 28.5 | 24 | 30 | 30.4 | 22.4 | 28.4 | 29 | 29 | 27.1 | 29 | 30.2 | 30.5 | 25.5 | 23 | 19 | 29.1 |
| CC(=O)c1c(C)c2cnc(Nc3ccc(N4CCNCC4)cn3)nc2n(C2CCCC2)c1=O [Palbociclib] | 4.46 | 0 | 0.79 | 5.42 | 3.04 | 3.99 | 0.478 | 0 | 0 | 0 | 4.56 | 0 | 0 | 0 | 0 | 0 |
| CC[C@@H]1C(=O)OC[C@@H]1Cc1cncn1C [Pilocarpine] | 0 | 0 | 0 | 0 | 0 | 0 | 0 | 0 | 0 | 0 | 0 | 0 | 0 | 0 | 0 | 0 |
| COc1cc(F)c(F)c(Nc2ccc(I)cc2F)c1NS(=O)(=O)C1(C[C@H](O)CO)CC1 [Refametinib] | 8.51 | 2.8 | 0 | 0 | 7.28 | 23.6 | 4.13 | 10.4 | 4.19 | 2.33 | 7.13 | 9.15 | 12.7 | 0 | 2.69 | 26.1 |
| CC(C)(C)c1cnc(CSc2cnc(NC(=O)C3CCNCC3)s2)o1 [SNS-032] | 17.8 | 24.3 | 28.6 | 25.6 | 14.8 | 18.6 | 21.8 | 25.1 | 23.7 | 27 | 28.1 | 25.3 | 21.6 | 17.7 | 10.3 | 18.9 |
| Cn1cnc2c(F)c(Nc3ccc(Br)cc3Cl)c(C(=O)NOCCO)cc21 [Selumetinib] | 7.93 | 0 | 0 | 0 | 3 | 17.3 | 0 | 0 | 0.63 | 0.661 | 2.35 | 5.56 | 11.1 | 0 | 0 | 19.9 |
| Nc1nc2[nH]cnc2c(=S)[nH]1 [Thioguanine] | 12 | 0.8 | 5.29 | 0 | 6.5 | 0 | 6.84 | 6.09 | 4.37 | 1.98 | 1.72 | 10.2 | 7.16 | 1.4 | 1.29 | 4.33 |
